Assay results published in PubChem BioAssay (NCI).
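Briefly, cells in 96-well plates were exposed to five compound concentrations for 48 h, and endpoints were estimated by linear interpolation. TGI denotes the concentration required for complete inhibition of growth.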

Columns and labels:
Test in all cases: DTP human tumour cell line panel, 48 h
OVCAR-3 ovarian = test system: OVCAR-3 ovarian
EKVX NSCLC = test system: EKVX NSCLC
XF 498 CNS = test system: XF 498 CNS
U251 CNS = test system: U251 CNS
SF-539 CNS = test system: SF-539 CNS
COLO 205 colon = test system: COLO 205 colon
A498 renal = test system: A498 renal
HOP-92 NSCLC = test system: HOP-92 NSCLC
SN12C renal = test system: SN12C renal
HCT-116 colon = test system: HCT-116 colon
786-0 renal = test system: 786-0 renal
SW-620 colon = test system: SW-620 colon
SK-MEL-28 melanoma = test system: SK-MEL-28 melanoma
DMS 114 small cell lung = test system: DMS 114 small cell lung
ACHN renal = test system: ACHN renal
HCT-15 colon = test system: HCT-15 colon
IGROV1 ovarian = test system: IGROV1 ovarian
A549 NSCLC = test system: A549 NSCLC
HL-60(TB) leukemia = test system: HL-60(TB) leukemia
M14 melanoma = test system: M14 melanoma
RPMI-8226 leukemia = test system: RPMI-8226 leukemia
K-562 leukemia = test system: K-562 leukemia
LOX IMVI melanoma = test system: LOX IMVI melanoma
OVCAR-8 ovarian = test system: OVCAR-8 ovarian
OVCAR-5 ovarian = test system: OVCAR-5 ovarian
UACC-62 melanoma = test system: UACC-62 melanoma
RXF-631 renal = test system: RXF-631 renal
KM12 colon = test system: KM12 colon
NCI-H226 lung = test system: NCI-H226 lung
MOLT-4 leukemia = test system: MOLT-4 leukemia
SK-OV-3 ovarian = test system: SK-OV-3 ovarian
HCC-2998 colon = test system: HCC-2998 colon
OVCAR-4 ovarian = test system: OVCAR-4 ovarian
DMS 273 small cell lung = test system: DMS 273 small cell lung
M19-MEL melanoma = test system: M19-MEL melanoma
SNB-78 CNS = test system: SNB-78 CNS
RXF 393 renal = test system: RXF 393 renal
KM20L2 colon = test system: KM20L2 colon
NCI-H460 lung = test system: NCI-H460 lung
HOP-62 NSCLC = test system: HOP-62 NSCLC
LXFL 529 NSCLC = test system: LXFL 529 NSCLC
TK-10 renal = test system: TK-10 renal
SF-295 CNS = test system: SF-295 CNS
SNB-75 CNS = test system: SNB-75 CNS
HOP-18 NSCLC = test system: HOP-18 NSCLC
CAKI-1 renal = test system: CAKI-1 renal
SK-MEL-5 melanoma = test system: SK-MEL-5 melanoma
HT29 colon = test system: HT29 colon
MALME-3M melanoma = test system: MALME-3M melanoma
SF-268 CNS = test system: SF-268 CNS
DLD-1 colon = test system: DLD-1 colon
SK-MEL-2 melanoma = test system: SK-MEL-2 melanoma
UACC-257 melanoma = test system: UACC-257 melanoma
SNB-19 CNS = test system: SNB-19 CNS
NCI-H23 lung = test system: NCI-H23 lung
SR leukemia = test system: SR leukemia
CCRF-CEM leukemia = test system: CCRF-CEM leukemia
UO-31 renal = test system: UO-31 renal
NCI-H522 lung = test system: NCI-H522 lung

Measured: TGI

CN(/N=C/c1cccc2cccnc12)c1c([N+](=O)[O-])cc([N+](=O)[O-])cc1[N+](=O)[O-]
not listed: SR leukemia | CCRF-CEM leukemia | UO-31 renal | NCI-H522 lung
> 100 µM: all other assays above

CC(=O)N(O)Cc1ccccc1
not listed: EKVX NSCLC | A498 renal | DMS 273 small cell lung | HOP-18 NSCLC | SK-MEL-2 melanoma
> 100 µM: all other assays above
